What was measured:
Type in all cases: ADME
[1] = molecular target: T1, CYP2B6 (Homo sapiens, UniProt P20813); test: Inhibition of CYP2B6 in human liver microsomes assessed as enzyme-mediated metabolite formation at 0.1 uM using bupropion as substrate incubated for 5 mins followed by NADPH addition measured after 30 mins by LC-MS/MS analysis relative to control; parameters: scale not given: the % may be the effect or the level left; details: probe bupropion, read-out: Activity
T1 sequence (P20813 whole entry): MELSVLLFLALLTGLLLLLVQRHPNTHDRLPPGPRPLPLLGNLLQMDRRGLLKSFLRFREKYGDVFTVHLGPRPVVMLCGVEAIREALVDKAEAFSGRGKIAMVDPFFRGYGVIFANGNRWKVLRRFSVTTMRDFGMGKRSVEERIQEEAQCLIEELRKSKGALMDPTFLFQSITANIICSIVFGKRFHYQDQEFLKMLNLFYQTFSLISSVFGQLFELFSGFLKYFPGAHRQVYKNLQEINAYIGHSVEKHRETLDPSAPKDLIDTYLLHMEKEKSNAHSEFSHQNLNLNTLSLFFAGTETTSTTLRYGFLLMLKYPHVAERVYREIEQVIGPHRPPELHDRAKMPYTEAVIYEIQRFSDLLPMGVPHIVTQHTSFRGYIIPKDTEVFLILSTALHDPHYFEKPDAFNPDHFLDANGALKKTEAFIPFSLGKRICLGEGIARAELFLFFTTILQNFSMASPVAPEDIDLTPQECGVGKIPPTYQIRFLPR

[2] = molecular target: T2, CYP3A4 (Homo sapiens, UniProt P08684); test: Inhibition of CYP3A4 in human liver microsomes assessed as enzyme-mediated metabolite formation at 10 uM using midazolam as substrate incubated for 5 mins followed by NADPH addition measured after 30 mins by LC-MS/MS analysis relative to control; parameters: scale not given: the % may be the effect or the level left; details: probe midazolam, read-out: Activity
T2 sequence (P08684 whole entry): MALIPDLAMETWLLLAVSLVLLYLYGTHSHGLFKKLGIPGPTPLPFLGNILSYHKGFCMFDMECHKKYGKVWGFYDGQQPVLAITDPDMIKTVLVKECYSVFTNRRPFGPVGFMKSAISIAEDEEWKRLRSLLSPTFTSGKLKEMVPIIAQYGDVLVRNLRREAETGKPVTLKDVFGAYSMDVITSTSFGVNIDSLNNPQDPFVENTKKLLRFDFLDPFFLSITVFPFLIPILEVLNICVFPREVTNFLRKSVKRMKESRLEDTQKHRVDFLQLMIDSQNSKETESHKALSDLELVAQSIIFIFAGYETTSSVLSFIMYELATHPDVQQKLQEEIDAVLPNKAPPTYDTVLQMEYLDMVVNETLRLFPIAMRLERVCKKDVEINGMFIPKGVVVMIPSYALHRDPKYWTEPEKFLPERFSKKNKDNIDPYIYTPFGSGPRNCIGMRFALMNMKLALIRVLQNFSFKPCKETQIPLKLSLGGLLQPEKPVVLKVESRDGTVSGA

[3] = molecular target: T2, CYP3A4; test: Inhibition of CYP3A4 in human liver microsomes assessed as enzyme-mediated metabolite formation at 3 uM using testosterone as substrate preincubated for 20 mins followed by substrate addition measured after 30 mins in presence of NADPH by LC-MS/MS analysis relative to control; parameters: scale not given: the % may be the effect or the level left; details: probe testosterone, read-out: Activity
[4] = molecular target: T1, CYP2B6; test: Inhibition of CYP2B6 in human liver microsomes assessed as enzyme-mediated metabolite formation at 0.3 uM using bupropion as substrate incubated for 5 mins followed by NADPH addition measured after 30 mins by LC-MS/MS analysis relative to control; parameters: scale not given: the % may be the effect or the level left; details: probe bupropion, read-out: Activity
[5] = molecular target: T3, Cytochrome P450 1A2 (Homo sapiens, UniProt P05177); test: Inhibition of human CYP1A2 using phenacetin as substrate incubated for 5 mins followed by NADPH addition measured after 30 mins by LC-MS/MS analysis
T3 sequence (P05177 whole entry): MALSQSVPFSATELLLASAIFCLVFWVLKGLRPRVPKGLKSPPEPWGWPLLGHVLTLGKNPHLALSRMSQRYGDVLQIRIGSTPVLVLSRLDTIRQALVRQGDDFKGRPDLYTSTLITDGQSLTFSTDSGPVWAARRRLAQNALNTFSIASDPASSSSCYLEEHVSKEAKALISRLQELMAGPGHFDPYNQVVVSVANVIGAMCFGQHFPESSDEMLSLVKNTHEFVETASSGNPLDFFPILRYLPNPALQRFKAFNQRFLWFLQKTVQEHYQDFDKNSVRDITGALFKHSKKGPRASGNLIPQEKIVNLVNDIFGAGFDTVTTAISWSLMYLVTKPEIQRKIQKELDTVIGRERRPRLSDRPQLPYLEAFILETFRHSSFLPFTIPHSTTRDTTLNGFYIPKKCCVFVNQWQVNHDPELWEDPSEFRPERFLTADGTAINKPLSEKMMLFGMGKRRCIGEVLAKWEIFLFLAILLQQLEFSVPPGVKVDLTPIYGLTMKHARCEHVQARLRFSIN

[6] = molecular target: T4, CYP2C9 (Homo sapiens, UniProt P11712); test: Inhibition of CYP2C9 in human liver microsomes assessed as enzyme-mediated metabolite formation at 1 uM using diclofenac as substrate preincubated for 20 mins followed by substrate addition measured after 30 mins in presence of NADPH by LC-MS/MS analysis relative to control; parameters: scale not given: the % may be the effect or the level left; details: probe diclofenac, read-out: Activity
T4 sequence (P11712 whole entry): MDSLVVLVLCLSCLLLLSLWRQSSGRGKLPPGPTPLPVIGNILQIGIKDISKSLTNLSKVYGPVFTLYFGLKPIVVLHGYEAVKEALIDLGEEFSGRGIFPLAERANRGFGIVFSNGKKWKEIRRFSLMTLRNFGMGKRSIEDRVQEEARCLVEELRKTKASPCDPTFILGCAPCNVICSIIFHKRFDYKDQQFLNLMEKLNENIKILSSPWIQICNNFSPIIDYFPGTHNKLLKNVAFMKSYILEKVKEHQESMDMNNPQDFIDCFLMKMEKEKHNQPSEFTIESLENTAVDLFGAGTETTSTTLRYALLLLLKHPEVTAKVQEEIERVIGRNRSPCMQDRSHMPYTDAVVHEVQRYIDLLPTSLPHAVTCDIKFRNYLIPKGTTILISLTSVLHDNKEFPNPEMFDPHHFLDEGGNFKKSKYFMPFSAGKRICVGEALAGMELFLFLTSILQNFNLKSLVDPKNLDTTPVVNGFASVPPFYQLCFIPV

[7] = molecular target: T4, CYP2C9; test: Inhibition of CYP2C9 in human liver microsomes assessed as enzyme-mediated metabolite formation at 0.1 uM using diclofenac as substrate preincubated for 20 mins followed by substrate addition measured after 30 mins in presence of NADPH by LC-MS/MS analysis relative to control; parameters: scale not given: the % may be the effect or the level left; details: probe diclofenac, read-out: Activity
[8] = molecular target: T2, CYP3A4; test: Inhibition of CYP3A4 in human liver microsomes assessed as enzyme-mediated metabolite formation at 0.3 uM using midazolam as substrate incubated for 5 mins followed by NADPH addition measured after 30 mins by LC-MS/MS analysis relative to control; parameters: scale not given: the % may be the effect or the level left; details: probe midazolam, read-out: Activity
[9] = molecular target: T5, CYP2A6 (Homo sapiens, UniProt P11509); test: Inhibition of CYP2A6 in human liver microsomes assessed as enzyme-mediated metabolite formation at 3 uM using coumarin as substrate incubated for 5 mins followed by NADPH addition measured after 30 mins by LC-MS/MS analysis relative to control; parameters: scale not given: the % may be the effect or the level left; details: probe coumarin, read-out: Activity
T5 sequence (P11509 whole entry): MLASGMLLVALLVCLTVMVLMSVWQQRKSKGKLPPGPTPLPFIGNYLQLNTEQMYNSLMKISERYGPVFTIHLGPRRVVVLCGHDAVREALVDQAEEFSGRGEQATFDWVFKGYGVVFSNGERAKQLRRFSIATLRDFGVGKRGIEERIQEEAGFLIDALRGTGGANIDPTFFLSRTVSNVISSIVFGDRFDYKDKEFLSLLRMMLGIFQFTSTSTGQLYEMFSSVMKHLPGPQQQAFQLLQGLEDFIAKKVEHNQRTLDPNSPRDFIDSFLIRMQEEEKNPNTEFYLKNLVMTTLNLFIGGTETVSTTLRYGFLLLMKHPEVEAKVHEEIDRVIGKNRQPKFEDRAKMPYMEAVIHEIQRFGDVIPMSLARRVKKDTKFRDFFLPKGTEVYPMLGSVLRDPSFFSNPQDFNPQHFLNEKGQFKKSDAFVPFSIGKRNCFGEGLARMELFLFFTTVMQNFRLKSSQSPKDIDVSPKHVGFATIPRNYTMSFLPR

[10] = molecular target: T2, CYP3A4; test: Inhibition of CYP3A4 in human liver microsomes assessed as enzyme-mediated metabolite formation at 3 uM using midazolam as substrate incubated for 5 mins followed by NADPH addition measured after 30 mins by LC-MS/MS analysis relative to control; parameters: scale not given: the % may be the effect or the level left; details: probe midazolam, read-out: Activity
[11] = molecular target: T6, CYP1A2 (Homo sapiens, UniProt P05177); test: Inhibition of CYP1A2 in human liver microsomes assessed as enzyme-mediated metabolite formation at 10 uM using phenacetin as substrate preincubated for 20 mins followed by substrate addition measured after 30 mins in presence of NADPH by LC-MS/MS analysis relative to control; parameters: scale not given: the % may be the effect or the level left; details: probe phenacetin, read-out: Activity
T6 sequence (P05177 whole entry): T3 sequence (P05177 whole entry)

[12] = molecular target: Cytochrome P450 3A4 (Homo sapiens, UniProt P08684); test: Inhibition of CYP3A4 in human liver microsomes assessed as enzyme-mediated metabolite formation using midazolam as substrate incubated for 5 mins followed by NADPH addition measured after 30 mins by LC-MS/MS analysis
Chain of Cytochrome P450 3A4 (P08684 whole entry): as the sequence (P08684 whole entry) above

[13] = molecular target: T7, Cytochrome P450 2A6 (Homo sapiens, UniProt P11509); test: Inhibition of CYP2A6 in human liver microsomes using coumarin as substrate preincubated for 20 mins followed by substrate addition measured after 30 mins in presence of NADPH by LC-MS/MS analysis
T7 sequence (P11509 whole entry): T5 sequence (P11509 whole entry)

activity at 0.5 h, 0.1 µM [1]: 93.6%
activity at 0.5 h, 10 µM [2]: 71%
activity at 0.5 h, 3 µM [3]: 95.8%
activity at 0.5 h, 0.3 µM [4]: 68.8%
IC50 [5]: 21.4 µM
inhibition (INH) ([5]; human, 0.5 h): Dose-dependent effect
activity at 0.5 h, 1 µM [6]: 81.1%
activity at 0.5 h, 0.1 µM [7]: 76%
activity at 0.5 h, 0.3 µM [8]: 103%
activity at 0.5 h, 3 µM [9]: 80.8%
activity at 0.5 h, 3 µM [10]: 77.4%
activity at 0.5 h, 10 µM [11]: 59%
IC50 [12]: > 30 µM
IC50 [13]: > 30 µM
SMILES: CCCCCCCC(=O)CCc1ccc(O)c(OC)c1

— ChEMBL document CHEMBL4007467, “Effects of 6-paradol, an unsaturated ketone from gingers, on cytochrome P450-mediated drug metabolism” (Bioorg Med Chem Lett, 2017)
